# Measurements reported in patent publication US6333338A, “Bispiperidines as antithrombotic agents” (Laboratoire L. Lafon, priority 1998, dated 2001).
# Where a name gives a salt, the structure may show the parent alone. Read-outs that look alike come from different tables or passages of the source.
# How the values were obtained:
# guinea pig platelets [1] = experiment: In vitro inhibition of collagen-induced platelet aggregation, guinea pig platelets (PRP); format: cell-based, guinea pig (male Dunkin-Hartley); details: collagen 1 μg/ml, 3 minutes of contact at 37° C.
# Experimental: (§1) A study of the inhibitory activity of the compounds of formula I on platelet aggregation was carried out in vitro, i.e. by direct contact of solutions of variable concentrations of the compounds with platelets freshly separated from a sample of total blood, taken under standardized conditions, from laboratory animals (guinea pigs) and from healthy human subjects who have not received any substances or drugs that might interfere with blood clotting. The anti-platelet-aggregating activity was also studied ex vivo/vitro, i.e. after administration of the substances claimed to guinea pigs to measure the intensity and duration of the anti-aggregating action induced by the fraction of the test product absorbed and circulating in the blood.
# Blood is taken by intracardiac puncture from male Dunkin-Hartley guinea pigs (weighing about 330 g), at a rate of 4.5 ml per 0.5 ml of trisodium citrate (concentration of the aqueous solution: 1.55%) in order to prevent all trace of clotting. The platelet-rich plasma (PRP) is obtained by centrifuging the tubes of total blood for 15 minutes at 150 g.
# The PRPs are collected as "pools". The platelets contained in these pools are counted using a Coulter ZM haematology automatic device: if necessary, a dilution is carried out in order for the platelet concentration in the plasma to be between 200,000 and 400,000 platelets/mm^3. Simultaneously, other samples of these pools serve to prepare the platelet-poor plasma (PPP) by centrifugation at 1500 g for 15 minutes.
# The kinetic study of the platelet aggregation is carried out by adding a collagen solution (1 μg/ml) to a volume of PRP, using a Chrono-log Corporation aggregometer (490-D1 or 560 VS) which uses an optical detection of the appearance of the thrombus.
# The measurements of the aggregation inhibition are carried out after 3 minutes of contact at 37° C. with agitation.
# guinea pig platelets [2] = experiment: Ex vivo/vitro inhibition of platelet aggregation after administration via the gastric route in guinea pigs; set-up: species or system guinea pig (Dunkin-Hartley); details: fasted guinea pigs; for inhibition at 150 mg/kg / inhibition at 10 mg/kg: Cavia porcellus, Platelet
# Experimental: as §1, with “blood. Evaluation of the anti-platelet-aggregating activity of the compounds is carried out in the same guinea pigs as those mentioned above (Dunkin-Hartley strain). […] The allocation of the treatments to the animals is random. The blood is taken and then treated under the same conditions as those described above for the in vitro studies. The results of the inhibition of the platelet aggregation obtained for each test concentration make it possible to calculate the IC50 concentration of each test product and the kinetics of the inhibitory effect and its duration of action.” for “blood.”
# [3] = Cavia porcellus, Platelet, 0.05 h
# [4] = 1 h before blood sampling, read-out: % of g.r. inhibition guinea pig ex vivo, d = 150 mg/kg, 1 h
# [5] = 2 h before blood sampling, read-out: % of g.r. inhibition guinea pig ex vivo, d = 150 mg/kg, 2 h
# [6] = 10 mg/kg, 1 h before blood sampling, read-out: % of g.r. inhibition guinea pig ex vivo, d = 10 mg/kg, 1 h
# [7] = 10 mg/kg, 2 h before blood sampling, read-out: % of g.r. inhibition guinea pig ex vivo, d = 10 mg/kg, 2 h
SMILES,IC50 (guinea pig platelets [1]; [3]) [nM],inhibition at 150 mg/kg (guinea pig platelets [2]; [4]) [%],inhibition at 150 mg/kg (guinea pig platelets [2]; [5]) [%],inhibition at 10 mg/kg (guinea pig platelets [2]; [6]) [%],inhibition at 10 mg/kg (guinea pig platelets [2]; [7]) [%],IC50 (guinea pig platelets [1]) [nM],"% of g.r. inhibition guinea pig ex vivo, d = 10 mg/kg, 1 h (guinea pig platelets [2]; 10 mg/kg, 1 h before blood sampling) [%]","% of g.r. inhibition guinea pig ex vivo, d = 10 mg/kg, 2 h (guinea pig platelets [2]; 10 mg/kg, 2 h before blood sampling) [%]"
"COc1ccc(C(CC(=O)O)NC(=O)CNC(=O)C(CCC2CCNCC2)CCC2CCNCC2)cc1 (stereo not drawn) [Example 7, 3-(4-Methoxyphenyl)-3-{[2-({4-(4-piperidyl)-2-[2-(4-piperidyl)ethyl]butanoyl}amino)acetyl]amino}propanoic Acid Dihydrochloride]",10000,-39,0,,,,,
"O=C(O)COc1cccc(C(CC(=O)O)NC(=O)CNC(=O)C(CCC2CCNCC2)CCC2CCNCC2)c1 (stereo not drawn) [Example 9, 3-[(3-Carboxymethoxy)phenyl]-3-{[2-({4-(4-piperidyl)-2-[2-(4-piperidyl)ethyl]butanoyl}amino)acetyl]amino}-propanoic Acid Dihydrochloride]",5000,-53,-5,,,,,
"O=C(CNC(=O)C(CCC1CCNCC1)CCC1CCNCC1)NCC(NC(=O)c1ccc2c(c1)OCO2)C(=O)O (stereo not drawn) [Example 25, 2-[(1,3-Benzodioxol-5-ylcarbonyl)amino]-3-{[2-({4-(4-piperidyl)-2-[2-(4-piperidyl)ethyl]butanoyl}amino)acetyl]amino}propanoic Acid Dihydrochloride]",29000,-33,-48,,,,,
"CS(=O)(=O)c1ccc(S(=O)(=O)NC(CNC(=O)CNC(=O)C(CCC2CCNCC2)CCC2CCNCC2)C(=O)O)cc1 (stereo not drawn) [Example 32, 2-({[4-(Methylsulphonyl)phenyl]sulphonyl}amino)-3-{[2-({4-(4-piperidyl)-2-[2-(4-piperidyl)ethyl]butanoyl}amino)acetyl]amino}propanoic Acid Dihydrochloride]",12000,,,-8,-8,,,
"Cc1ccc(S(=O)(=O)NC(CNC(=O)CNC(=O)C(CCC2CCNCC2)CCC2CCNCC2)C(=O)O)cc1 (stereo not drawn) [Example 39, 2-{[(4-Methylphenyl)sulphonyl]amino}-3-{[2-({4-(4-piperidyl)-2-[2-(4-piperidyl)ethyl]butanoyl}amino)acetyl]amino}propanoic Acid Dihydrochloride]",250,,,-32,-10,,,
"Cc1cccc(S(=O)(=O)NC(CNC(=O)CNC(=O)C(CCC2CCNCC2)CCC2CCNCC2)C(=O)O)c1 (stereo not drawn) [Example 40, 2-{[(3-Methylphenyl)sulphonyl]amino}-3-{[2-({4-(4-piperidyl)-2-[2-(4-piperidyl)ethyl]butanoyl}amino)acetyl]amino}propanoic Acid Dihydrochloride]",400,,,-32,-10,,,
"O=C(CNC(=O)C(CCC1CCNCC1)CCC1CCNCC1)NCC(NS(=O)(=O)Cc1ccccc1)C(=O)O (stereo not drawn) [Example 41, 2-[(Benzylsulphonyl)amino]-3-{[2-({4-(4-piperidyl)-2-[2-(4-piperidyl)ethyl]butanoyl}amino)acetyl]amino}propanoic Acid Dihydrochloride]",8600,,,13,1,,,
"O=C(CNC(=O)C(CCC1CCNCC1)CCC1CCNCC1)NCC(NS(=O)(=O)/C=C/c1ccccc1)C(=O)O (stereo not drawn) [Example 42, 2-({[(E)-2-Phenylethenyl]sulphonyl}amino)-3-{[2-({4-(4-piperidyl)-2-[2-(4-piperidyl)ethyl]butanoyl}amino)acetyl]amino}propanoic Acid Dihydrochloride]",420,,,-14,-26,,,
"Cl.Cl.O=C(CNC(=O)C(CCC1CCNCC1)CCC1CCNCC1)NCC(NS(=O)(=O)CCc1ccccc1)C(=O)O (stereo not drawn) [Example 43, 2-[(2-Phenethylsulphonyl)amino]-3-{[2-({4-(4-piperidyl)-2-[2-(4-piperidyl)ethyl]butanoyl}amino)acetyl]amino}propanoic Acid Dihydrochloride]",,,,,,1200,-15,-4
"O=C(CNC(=O)C(CCC1CCNCC1)CCC1CCNCC1)NCC(NS(=O)(=O)c1cccc(C(F)(F)F)c1)C(=O)O (stereo not drawn) [Example 44, 2-({[3-(Trifluoromethyl)phenyl]sulphonyl}amino)-3-{[2-({4-(4-piperidyl)-2-[2-(4-piperidyl)ethyl]butanoyl}amino)acetyl]amino}propanoic Acid Dihydrochloride]",510,,,-22,-35,,,
"O=C(CNC(=O)C(CCC1CCNCC1)CCC1CCNCC1)NCC(NS(=O)(=O)c1cccc([N+](=O)[O-])c1)C(=O)O (stereo not drawn) [Example 45, 2-{[(3-Nitrophenyl)sulphonyl]amino}-3-{[2-({4-(4-piperidyl)-2-[2-(4-piperidyl)ethyl]butanoyl}amino)acetyl]amino}propanoic Acid Dihydrochloride]",500,,,-36,-51,,,
"COc1ccc(S(=O)(=O)NC(CNC(=O)CNC(=O)C(CCC2CCNCC2)CCC2CCNCC2)C(=O)O)cc1 (stereo not drawn) [Example 46, 2-{[(4-Methoxyphenyl)sulphonyl]amino}-3-{[2-({4-(4-piperidyl)-2-[2-(4-piperidyl)ethyl]butanoyl}amino)acetyl]amino}propanoic Acid Dihydrochloride]",380,,,-18,-31,,,
"O=C(CNC(=O)C(CCC1CCNCC1)CCC1CCNCC1)NCC(NS(=O)(=O)c1cccc2cccnc12)C(=O)O (stereo not drawn) [Example 47, 2-[(8-Quinolinylsulphonyl)amino]-3-{[2-({4-(4-piperidyl)-2-[2-(4-piperidyl)ethyl]butanoyl}amino)acetyl]amino}propanoic Acid Trihydrochloride]",1900,,,-4,-17,,,
"Cc1noc(C)c1S(=O)(=O)NC(CNC(=O)CNC(=O)C(CCC1CCNCC1)CCC1CCNCC1)C(=O)O (stereo not drawn) [Example 48, 2-{[(3,5-Dimethyl-4-isoxazolyl)sulphonyl]amino}-3-{[2-({4-(4-piperidyl)-2-[2-(4-piperidyl)ethyl]butanoyl}amino)acetyl]amino}propanoic Acid Dihydrochloride]",420,,,-61,-15,,,
"CC(=O)Nc1nc(C)c(S(=O)(=O)NC(CNC(=O)CNC(=O)C(CCC2CCNCC2)CCC2CCNCC2)C(=O)O)s1 (stereo not drawn) [Example 50, 2-({[2-(Acetylamino)-4-methyl-1,3-thiazol-5-yl]sulphonyl}amino)-3-{[2-({4-(4-piperidyl)-2-[2-(4-piperidyl)ethyl]butanoyl}amino)acetyl]amino}propanoic Acid Dihydrochloride]",3300,,,-22,-39,,,
"O=C(CNC(=O)C(CCC1CCNCC1)CCC1CCNCC1)NC[C@H](NS(=O)(=O)CCCCl)C(=O)O [Example 51, 2-{[(3-Chloropropyl)sulphonyl]amino}-3-{[2-({4-(4-piperidyl)-2-[2-(4-piperidyl)ethyl]butanoyl}amino)acetyl]amino}propanoic Acid Dihydrochloride]",11000,,,4,-21,,,
"Cc1nc(C)c(S(=O)(=O)NC(CNC(=O)CNC(=O)C(CCC2CCNCC2)CCC2CCNCC2)C(=O)O)s1 (stereo not drawn) [Example 54, 2-{[(2,4-Dimethyl-1,3-thiazol-5-yl)sulphonyl]amino}-3-{[2-({4-(4-piperidyl)-2-[2-(4-piperidyl)ethyl]butanoyl}amino)acetyl]amino}propanoic Acid Dihydrochloride]",1300,,,-40,-15,,,
